# What was measured:
# Format in all cases: in vivo, Mouse/C57BL/6
# [1] = system: BLM-induced fibrosis; assay: Bleomycin (BLM)-induced lung fibrosis in mice: Gomori's Trichrome score of lung sections; details: for Trichrome score (average) / % reduction in fibrosis: day 21; for Trichrome score (average): BLM 2.5 U/kg intratracheal, p.o. once daily 14 days from day 7, mg/kg: Pirfenidone 300, Bromantane 20, Ifenoprodil 30, Radiprodil 30, Bemithyl 200, Dexamethasone 0.25, Repirinast 90, Normal 1.00, Vehicle 4.59; for % reduction in fibrosis: from Trichrome scores relative to vehicle and normal groups, doses as Table 1, p.o. once daily 14 days; for Trichrome score response versus BLM-vehicle group (in words) / percent reduction in lung fibrosis in comparison to the BLM-vehicle group (in words): doses as Table 1, order: Dexamethasone and Repirinast, followed by Ifenprodil and Radiprodil; for improvement in lung fibrosis, loss of body weight, Trichrome score and mortality as compared to BLM-vehicle (conclusion, in words): oral administration, Dexamethasone 0.25, Repirinast 90, Ifenprodil 30, Radiprodil 30 mg/kg
# Experimental: (§1) The mouse species or strain was Mouse/C57BL/6, the mice being 8-10 week old males. Nine groups of 10 mice each were obtained from Charles River Laboratories. Each group was randomized based on body weight. Bleomycin (BLM) was obtained from Euroasias.
# (§2) The mice were anesthetized with isoflurane/O2 mixture. Bleomycin (BLM) was then administered to the mice intratracheally (PennCentury)—single bolus, at 2.5 U/kg body weight in 50 μl sterile saline.
# (§3) Seven days after the bleomycin is administered, and fibroblasts have generally proliferated, six of the nine groups of IT bleomycin challenged mice were be dosed orally (p.o.) once a day with Bromantane, Ifenoprodil, Radiprodil, Bemithyl, Dexamethasone, or Repirinast at specified amounts per kg of body weight (mg/kg) daily for 14 consecutive days. The amounts are set out in Table 1 below. The vehicle used was 0.5% carboxymethyl cellulose (CMC). Prifenidone was also prepared in 0.5% CMC and administrated orally once a day to one of the nine IT bleomycin challenged mice groups beginning for 14 consecutive days. Vehicle and no-BLM control groups received 0.5% CMC orally for 14 consecutive days.
# On day 21 of the study, 4 hours after the last dose, the mice were sacrificed and plasma was collected and frozen for cytokine analysis (testing for IL-6, IL-12, TGFβ, IL-13 proteins, or fibrosis markers). Bronchoalveolar lavage fluid (BALF) was collected and frozen for optional cytokine analyses and cell counts pending the initial data. The lungs were then excised, weighed and fixed in formalin. Gomori's Trichrome stain, a histological stain, was used to determine collagen content.
# Trichrome Score: A trichrome score measures the level of scarring to the lungs caused by the disease. The greater the trichrome score, the greater the scarring.
# Formalin fixed lung samples were submitted to affiliated histopathology laboratory for histopathological analysis subjected Gomori's Trichrome stain, a histological stain, which was used to determine collagen content.
# Each lung was divided into ten sections. All ten sections were stained and evaluated. A board certified veterinarian pathologist assessed the presence of lung fibrosis and severity score—The expression of collagen (associated with fibrosis) is determined from the ratio of the stained area versus the total area of the lung section.
# [2] = system: BLM-induced fibrosis; assay: Bleomycin (BLM)-induced lung fibrosis in mice: mortality rate over 21 days; details: doses as Table 1; for Fatality Number: deaths/mice per group over 21 days, Vehicle 2/10; for Percent Fatality: over 21 days, Vehicle 20%; for percent survival (in words): order: Dexamethasone and Repirinast, followed by Ifenprodil and Radiprodil
# Experimental: as §1, §2, §3
# Mortality Rate: the mortality rate in each group was also observed over 21 days.
# [3] = Bleomycin (BLM)-induced lung fibrosis in mice: body weight over 21 days; details: for Percent Change in Body Weight / Body Weight: doses as Table 1; for Body Weight: group mean; for changes in body weight as compared to the BLM-vehicle group (in words): doses as Table 1, p.o. once daily
# Experimental: as §1, §2, §3
# Body Weight: The body weights were measured over 21 days using a laboratory balance.
Structure (SMILES),Trichrome score (average) [1],% reduction in fibrosis [1] [%],Fatality Number [2],Percent Fatality [2] [%],Percent Change in Body Weight ([3]; 7-Nov) [%],Body Weight ([3]; 7-Nov) [g],Percent Change in Body Weight ([3]; 8-Nov) [%],Body Weight ([3]; 8-Nov) [g],Percent Change in Body Weight ([3]; 9-Nov) [%],Body Weight ([3]; 9-Nov) [g],Percent Change in Body Weight ([3]; 12-Nov) [%],Body Weight ([3]; 12-Nov) [g],Percent Change in Body Weight ([3]; 14-Nov) [%],Body Weight ([3]; 14-Nov) [g],Percent Change in Body Weight ([3]; 16-Nov) [%],Body Weight ([3]; 16-Nov) [g],Percent Change in Body Weight ([3]; 20-Nov) [%],Body Weight ([3]; 20-Nov) [g],Percent Change in Body Weight ([3]; 22-Nov) [%],Body Weight ([3]; 22-Nov) [g],other results
"Brc1ccc(NC2C3CC4CC(C3)CC2C4)cc1 (stereo not drawn) [Bromantane, N-(4-bromophenyl)adamantan-2-amine]",4.00,16.4,3/10,30,0.0,24.8,−0.1,24.7,−0.8,24.0,−1.8,23.1,−1.1,23.7,−1.5,23.3,−1.9,22.9,−1.6,23.2,"Percent Change in Body Weight ([3]; 26-Nov): −1.0%; Body Weight ([3]; 26-Nov): 23.8 g; Percent Change in Body Weight ([3]; 28-Nov): 0.4%; Body Weight ([3]; 28-Nov): 25.2 g; changes in body weight as compared to the BLM-vehicle group (in words) [3]: showed improvement beginning Day 5, with the exception of Day 15"
"C[C@@H]([C@H](O)c1ccc(O)cc1)N1CCC(Cc2ccccc2)CC1 (stereo in doubt) [Ifenoprodil, 4-[2-(4-benzylpiperidin-1-ium-1-yl)-1-hydroxypropyl] phenol; 2,3,4-trihydroxy-4-oxobutanoate]",3.37,34.0,0/10,0,0.0,24.4,−0.1,24.3,−0.3,24.1,−2.0,22.4,−1.3,23.1,−0.8,23.6,−0.3,24.1,0.5,24.9,"Trichrome score response versus BLM-vehicle group (in words) [1]: response was better; percent reduction in lung fibrosis in comparison to the BLM-vehicle group (in words) [1]: higher; improvement in lung fibrosis, loss of body weight, Trichrome score and mortality as compared to BLM-vehicle (conclusion, in words) [1]: showed improvement; percent survival (in words) [2]: higher; Percent Change in Body Weight ([3]; 26-Nov): 0.2%; Body Weight ([3]; 26-Nov): 24.6 g; Percent Change in Body Weight ([3]; 28-Nov): 0.7%; Body Weight ([3]; 28-Nov): 25.1 g; changes in body weight as compared to the BLM-vehicle group (in words) [3]: showed improvement beginning on Day 5"
"CCSc1nc2ccccc2[nH]1 [Bemithyl, 2-Ethylsulfanyl-1H-benzoimidazole]",4.14,12.5,1/10,10,0.0,24.6,0.0,24.7,−0.6,24.1,−1.6,23.0,−1.1,23.5,−1.7,22.9,−1.6,23.1,−0.6,24.0,Percent Change in Body Weight ([3]; 26-Nov): −0.9%; Body Weight ([3]; 26-Nov): 23.7 g; Percent Change in Body Weight ([3]; 28-Nov): −0.3%; Body Weight ([3]; 28-Nov): 24.3 g; changes in body weight as compared to the BLM-vehicle group (in words) [3]: showed improvement beginning on Day 5
"Cc1ccc2c([nH]c(=O)c3c(=O)cc(C(=O)OCCC(C)C)oc32)c1C [Repirinast, Isopentyl 7,8-dimethyl-4,5-dioxo-5,6-dihydro-4H-pyrano[3,2-c]quinoline-2-carboxylate]",3.16,39.8,1/10,10,0.0,23.5,0.2,23.7,−0.3,23.2,−2.0,21.5,−1.8,21.8,−2.5,21.1,−2.2,21.4,−1.3,22.3,"Trichrome score response versus BLM-vehicle group (in words) [1]: response was better; percent reduction in lung fibrosis in comparison to the BLM-vehicle group (in words) [1]: higher; improvement in lung fibrosis, loss of body weight, Trichrome score and mortality as compared to BLM-vehicle (conclusion, in words) [1]: showed improvement; percent survival (in words) [2]: higher; Percent Change in Body Weight ([3]; 26-Nov): −1.6%; Body Weight ([3]; 26-Nov): 21.9 g; Percent Change in Body Weight ([3]; 28-Nov): −1.3%; Body Weight ([3]; 28-Nov): 22.3 g; changes in body weight as compared to the BLM-vehicle group (in words) [3]: No significant differences"
"Cc1ccc(=O)n(-c2ccccc2)c1 [Pirfenidone (+), 5-methyl-1-phenylpyridin-2(1H)-one]",4.09,13.9,2/10,20,0.0,24.0,0.3,24.2,−0.5,23.5,−2.2,21.7,−2.9,21.0,−3.2,20.8,−3.7,20.3,−2.9,21.1,Trichrome score response versus BLM-vehicle group (in words) [1]: minimal improvement; Percent Change in Body Weight ([3]; 26-Nov): −3.1%; Body Weight ([3]; 26-Nov): 20.9 g; Percent Change in Body Weight ([3]; 28-Nov): −3.2%; Body Weight ([3]; 28-Nov): 20.7 g
"O=C(Nc1ccc2[nH]c(=O)oc2c1)C(=O)N1CCC(Cc2ccc(F)cc2)CC1 [Radiprodil, 2-[4-[(4-fluorophenyl)methyl]piperidin-1-yl]-2-oxo-N-(2-oxo-3H-1,3-benzoxazol-6-yl)acetamide]",3.45,31.8,2/10,20,0.0,23.6,0.0,23.6,−0.4,23.2,−2.3,21.3,−1.8,21.8,−1.0,22.6,−1.2,22.4,−0.3,23.3,"Trichrome score response versus BLM-vehicle group (in words) [1]: response was better; percent reduction in lung fibrosis in comparison to the BLM-vehicle group (in words) [1]: higher; improvement in lung fibrosis, loss of body weight, Trichrome score and mortality as compared to BLM-vehicle (conclusion, in words) [1]: showed improvement; percent survival (in words) [2]: higher; Percent Change in Body Weight ([3]; 26-Nov): 0.3%; Body Weight ([3]; 26-Nov): 24.0 g; Percent Change in Body Weight ([3]; 28-Nov): 0.4%; Body Weight ([3]; 28-Nov): 24.0 g; changes in body weight as compared to the BLM-vehicle group (in words) [3]: showed improvement beginning on Day 5"
